Series [1] deals with Lactuca sativa (lettuce) seed. The series is described as follows: Germination of lettuce seeds in 96-well plate, dilution series. As to conditions: 11 days; for germination: 75 ul per well. In kind it is in vivo. How it is done:
The phytotoxic effects of propionic and formic acids were tested on germinating dicot seeds. A single seed of Lactuca sativa (lettuce) was placed in each well of a 96-well plate followed by a 75-ul aliquot of each solution in a stepwise (1:2) dilution series with DI water from 5% to 0%. DI water was used as a control. The plate was sealed with a plastic cover, and placed under greenhouse lights (12 hr light/dark cycle) for 11 days after which the germination at each concentration was recorded. See the results below.

The test system of another series is Poa annua. The series is described as follows: Post-emergence minimum concentration study in peat pots, 2-10%. In kind it is in vivo. As to conditions: Poa annua in small peat pots, sprayed. From the text:
To further test the minimum concentration of propionic acid required to control Poa annua (as an example of a grass weed) another study was set up in small peat pots using concentrations 0% (control), 2%, 4%, 6%, 8% and 10% of propionic acid. According to the results, a concentration of 8-10% is needed for good control.

The test system of series [2] is Seedlings of Lactuca sativa (lettuce). The experiment in a line: High-throughput 96-well post-emergence assay on lettuce seedlings. The series is classed as in vivo. The protocol:
A high-throughput 96-well assay was used to test the efficacy of propionic acid as a post-emergence, non-selective herbicide. Seedlings of Lactuca sativa (lettuce) were grown in water agar in 96-well plates under continuous light. Propionic acid was added on the seedlings at a 2×-dilution series from 20% to 0%, and the minimum concentration needed for killing the seedling was recorded the next day. According to the results, propionic acid at a concentration of 0.156% was able to kill the lettuce seedling, whereas propionic acid at a concentration of 0.08% was not harmful for the plant.

The test system of series [3] is Poa annua (annual bluegrass) seeds. The series is described as follows: Pre-emergence pot test, propionic acid in corn gluten meal granules, annual bluegrass. The conditions noted are these: one week. The series is classed as in vivo. The protocol:
(§1) To further test the inhibitory effect of propionic acid on germinating seeds, pots with 6-cm diameter were filled with 60 mL of silty clay loam soil passed through a 2-mm sieve, and five (5) seeds of either Lactuca sativa (lettuce, representing a broadleaf plant) or Poa annua (annual bluegrass, representing a grass weed) were planted on the top. A solid form of the composition containing corn gluten meal granules (1-2 mm diameter) soaked in 0%, 10%, 15% or 20% propionic acid solution and dried were placed on the top of the soil at rates 0.1, 0.25, and 0.5 g/pot. The pots were kept at optimum water content under growth lights with a 12-h light/dark period at room temperature, and the number of germinated seeds was counted after one week. The results were reported as a percent of weed seeds germinated relative to the control treatment with no corn gluten meal added.

The test system of series [4] is Poa annua (annual bluegrass). The experiment in a line: Post-emergence spray test on annual bluegrass, 0.5-20%. The series is classed as in vivo. The conditions noted are these: 2 mL spray, four days after treatment. How it is done:
Pots with 6-cm diameter were filled with potting mix, and about thirty (30) seeds of Poa annua (annual bluegrass, representing a grass weed) were planted on the top. The seeds were germinated and the plants grown at optimum water content under growth lights with a 12-h light/dark period at room temperature until they were about 3 inches tall. To test the post-emergence effect of propionic acid, the plants were sprayed with 2 mL of water solutions containing increasing concentrations of propionic acid. The following concentrations (v/v %) were used: 0% (control), 0.5% 2.5%, 5%, 10%, and 20%. the plants were observed four days after the treatment.

Series [5] has as its system Lactuca sativa (lettuce) seeds. The series is described as follows: Pre-emergence pot test, propionic acid in corn gluten meal granules, lettuce. In kind it is in vivo. The conditions noted are these: one week. How it is done:
as §1

A short description of series [6]: Solubility of hinokitiol in solvents. The series is classed as physicochemical. As to conditions: ambient conditions. The text has this: The solubility of hinokitiol in proprionic acid was 60% w/w or 3 parts hinokitiol to 2 parts propionic acid by weight, under ambient conditions. Under the correct conditions the solubility of hinokitiol in propionic acid would exceed 3 parts hinokitiol to 2 parts propionic acid, by weight. Under ambient conditions, the maximum solubility of hinokitiol in ethanol is 50% w/w or 1 part hinokitiol to 1 part ethanol by weight.

The mark [7] stands for this setting: granules soaked in 10% propionic acid, 0.1 g/pot.
Where [8] appears, read: granules soaked in 10% propionic acid, 0.25 g/pot.
[9] abbreviates: granules soaked in 10% propionic acid, 0.5 g/pot.
Setting [10] is: granules soaked in 15% propionic acid, 0.1 g/pot.
Setting [11] is: granules soaked in 15% propionic acid, 0.25 g/pot.
Setting [12] is: granules soaked in 15% propionic acid, 0.5 g/pot.
Setting [13] is: granules soaked in 20% propionic acid, 0.1 g/pot.
[14] abbreviates: granules soaked in 20% propionic acid, 0.25 g/pot.
Where [15] appears, read: granules soaked in 20% propionic acid, 0.5 g/pot.

Consider `O=CO` [Formic Acid, reference compound], for which the germination entry was “+” in series [1] (0.005% solution); “+ and −” in series [1] (0.01% solution); “+ and −” in series [1] (0.02% solution); “− and +” in series [1] (0.05% solution); “−” in series [1] (0.09% solution); “−” in series [1] (0.19% solution). Besides, the germination entry in series [1] (0.36% solution), in series [1] (0.75% solution), in series [1] (1.25% solution), in series [1] (2.50% solution) and in series [1] (5.00% solution) was “−” each time.
As for `CCC(=O)O` [Propionic acid], the “concentration needed for good control” value with Poa annua was 8-10%. Further, the “effect on the seedling” value in series [2] (concentration of 0.08%, next day) is “not harmful”. Further, the “minimum concentration needed for killing the seedling” value in series [2] (lettuce seedlings, recorded the next day) is on record as 0.156%. Moreover, the “germination rate (%) relative to untreated control” value in series [3] (setting [7]) stood at 37%; in series [3] (setting [8]), 44%; in series [3] (setting [9]), 22%; in series [3] (setting [10]), 44%; in series [3] (setting [11]), 52%; in series [3] (setting [12]), 30%. The “germination rate (%) relative to untreated control” value was determined as 44% in series [3] (setting [13]); 37% in series [3] (setting [14]); 96% in series [3] (setting [15]); 50% in series [5] (setting [7]); 75% in series [5] (setting [8]); 42% in series [5] (setting [9]). Also, the “germination rate (%) relative to untreated control” value was found to be 83% in series [5] (setting [10]); 25% in series [5] (setting [11]); 42% in series [5] (setting [12]); 42% in series [5] (setting [13]); 67% in series [5] (setting [14]); 33% in series [5] (setting [15]). The “herbicidal effect, visual observations” value is “no herbicidal effect” in series [4] (0.5% (v/v) in water); “symptoms of wilting, scorching and eventually, death” in series [4] (10% (v/v) in water); “symptoms of wilting, scorching and eventually, death” in series [4] (20% (v/v) in water). The germination result is “+” in series [1] (0.005% solution); “+” in series [1] (0.01% solution); “+ and −” in series [1] (0.02% solution); “− and +” in series [1] (0.05% solution); “−” in series [1] (0.09% solution); “−” in series [1] (0.19% solution). Moreover, the germination result in series [1] (0.36% solution), in series [1] (0.75% solution), in series [1] (1.25% solution), in series [1] (2.50% solution) and in series [1] (5.00% solution) was “−” throughout. Further, the “threshold value for complete inhibition of seed germination” value in series [1] (lettuce seed) was determined as 0.09%.
Regarding `CC(C)c1cccc(=O)c(O)c1` [hinokitiol], in series [6], the “maximum solubility in ethanol” value is recorded as 50 % w/w and the “solubility in propionic acid” value was found to be 60 % w/w.

Values taken from US20090111697A1, “PROPIONIC ACID AS AN HERBICIDE” (Marrone Organic Innovations, priority 2007, published 2009).
